Assay results from PubChem BioAssay AID1963847 (Molecular Pharmacology Branch, DTP, NCI, 2024).

Tested on: 415267-285-R-J2-PDC complex spheroid viability
Assay: Anticancer human tumor 415267-285-R-J2-PDC patient-derived breast carcinoma cell line growth inhibition [POLQ]
Conditions: for IC50: curve of first compound; for viability, T/C: stronger effect = lower value
In short: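 Three-cell-type spheroids modelling solid tumor plus stroma served as the readout system; POL inhibitors were tested individually and in combination, concentration ranges set by clinical Cmax where known.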
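Further: spheroids exposed to compounds for one week before readout.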
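Wherever viability, T/C is given: luminescence used as stand-in measure of viable cells; 100% = DMSO vehicle control viability.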

CC(=O)O[C@H]1C(=O)[C@@]2(C)[C@H]([C@H](OC(=O)c3ccccc3)[C@]3(O)C[C@H](OC(=O)[C@H](O)[C@@H](NC(=O)c4ccccc4)c4ccccc4)C(C)=C1C3(C)C)[C@]1(OC(C)=O)CO[C@@H]1C[C@@H]2O + COC1C(OC(N)=O)C(O)C(Oc2ccc3c(O)c(NC(=O)c4ccc(O)c(CC=C(C)C)c4)c(=O)oc3c2C)OC1(C)C
IC50 (second compound 0.0316 µM): < 0.00949 µM
IC50 (second compound 0.1 µM): < 0.00949 µM
IC50 (second compound 0.316 µM): < 0.00949 µM
IC50 (second compound 1 µM): < 0.00949 µM
IC50 (second compound 3.16 µM): < 0.00949 µM
IC50 (second compound 10 µM): < 0.00949 µM
viability, T/C (second compound 0.0316 µM, first compound 0.00949 µM): 13.6%
viability, T/C (second compound 0.0316 µM, first compound 0.03 µM): 9.68%
viability, T/C (second compound 0.0316 µM, first compound 0.0949 µM): 8.14%
viability, T/C (second compound 0.0316 µM, first compound 0.3 µM): 6.55%
viability, T/C (second compound 0.0316 µM, first compound 0.949 µM): 8.38%
viability, T/C (second compound 0.0316 µM, first compound 3 µM): 8.03%
viability, T/C (second compound 0.1 µM, first compound 0.00949 µM): 11%
viability, T/C (second compound 0.1 µM, first compound 0.03 µM): 8.15%
viability, T/C (second compound 0.1 µM, first compound 0.0949 µM): 7.43%
viability, T/C (second compound 0.1 µM, first compound 0.3 µM): 7.95%
viability, T/C (second compound 0.1 µM, first compound 0.949 µM): 8.29%
viability, T/C (second compound 0.1 µM, first compound 3 µM): 9.45%
viability, T/C (second compound 0.316 µM, first compound 0.00949 µM): 13.1%
viability, T/C (second compound 0.316 µM, first compound 0.03 µM): 9.7%
viability, T/C (second compound 0.316 µM, first compound 0.0949 µM): 7.34%
viability, T/C (second compound 0.316 µM, first compound 0.3 µM): 8.56%
viability, T/C (second compound 0.316 µM, first compound 0.949 µM): 8.09%
viability, T/C (second compound 0.316 µM, first compound 3 µM): 7.17%
viability, T/C (second compound 1 µM, first compound 0.00949 µM): 12.9%
viability, T/C (second compound 1 µM, first compound 0.03 µM): 8.82%
viability, T/C (second compound 1 µM, first compound 0.0949 µM): 8.23%
viability, T/C (second compound 1 µM, first compound 0.3 µM): 8.01%
viability, T/C (second compound 1 µM, first compound 0.949 µM): 8.58%
viability, T/C (second compound 1 µM, first compound 3 µM): 7.75%
viability, T/C (second compound 3.16 µM, first compound 0.00949 µM): 13%
viability, T/C (second compound 3.16 µM, first compound 0.03 µM): 10.4%
viability, T/C (second compound 3.16 µM, first compound 0.0949 µM): 8%
viability, T/C (second compound 3.16 µM, first compound 0.3 µM): 7.65%
viability, T/C (second compound 3.16 µM, first compound 0.949 µM): 8.33%
viability, T/C (second compound 3.16 µM, first compound 3 µM): 8.3%
viability, T/C (second compound 10 µM, first compound 0.00949 µM): 24.1%
viability, T/C (second compound 10 µM, first compound 0.03 µM): 9.1%
viability, T/C (second compound 10 µM, first compound 0.0949 µM): 7.75%
viability, T/C (second compound 10 µM, first compound 0.3 µM): 8.73%
viability, T/C (second compound 10 µM, first compound 0.949 µM): 6.75%
viability, T/C (second compound 10 µM, first compound 3 µM): 9.23%

O=c1[nH]cc(F)c(=O)[nH]1 + COC1C(OC(N)=O)C(O)C(Oc2ccc3c(O)c(NC(=O)c4ccc(O)c(CC=C(C)C)c4)c(=O)oc3c2C)OC1(C)C
IC50 (second compound 0.0316 µM): 0.194 µM
IC50 (second compound 0.1 µM): 0.197 µM
IC50 (second compound 0.316 µM): 0.162 µM
IC50 (second compound 1 µM): 0.176 µM
IC50 (second compound 3.16 µM): 0.205 µM
IC50 (second compound 10 µM): 0.203 µM
viability, T/C (second compound 0.0316 µM, first compound 0.0316 µM): 94.1%
viability, T/C (second compound 0.0316 µM, first compound 0.1 µM): 72.7%
viability, T/C (second compound 0.0316 µM, first compound 0.316 µM): 33.1%
viability, T/C (second compound 0.0316 µM, first compound 1 µM): 31.1%
viability, T/C (second compound 0.0316 µM, first compound 3.16 µM): 27.2%
viability, T/C (second compound 0.0316 µM, first compound 10 µM): 37.1%
viability, T/C (second compound 0.1 µM, first compound 0.0316 µM): 86.9%
viability, T/C (second compound 0.1 µM, first compound 0.1 µM): 73.1%
viability, T/C (second compound 0.1 µM, first compound 0.316 µM): 34.2%
viability, T/C (second compound 0.1 µM, first compound 1 µM): 23.7%
viability, T/C (second compound 0.1 µM, first compound 3.16 µM): 26.5%
viability, T/C (second compound 0.1 µM, first compound 10 µM): 39.3%
viability, T/C (second compound 0.316 µM, first compound 0.0316 µM): 97.7%
viability, T/C (second compound 0.316 µM, first compound 0.1 µM): 63.8%
viability, T/C (second compound 0.316 µM, first compound 0.316 µM): 31%
viability, T/C (second compound 0.316 µM, first compound 1 µM): 27.2%
viability, T/C (second compound 0.316 µM, first compound 3.16 µM): 26.7%
viability, T/C (second compound 0.316 µM, first compound 10 µM): 34.5%
viability, T/C (second compound 1 µM, first compound 0.0316 µM): 85.8%
viability, T/C (second compound 1 µM, first compound 0.1 µM): 63.5%
viability, T/C (second compound 1 µM, first compound 0.316 µM): 36.8%
viability, T/C (second compound 1 µM, first compound 1 µM): 25.3%
viability, T/C (second compound 1 µM, first compound 3.16 µM): 26.4%
viability, T/C (second compound 1 µM, first compound 10 µM): 29.9%
viability, T/C (second compound 3.16 µM, first compound 0.0316 µM): 94.6%
viability, T/C (second compound 3.16 µM, first compound 0.1 µM): 76.3%
viability, T/C (second compound 3.16 µM, first compound 0.316 µM): 34.2%
viability, T/C (second compound 3.16 µM, first compound 1 µM): 27.1%
viability, T/C (second compound 3.16 µM, first compound 3.16 µM): 25.4%
viability, T/C (second compound 3.16 µM, first compound 10 µM): 37.2%
viability, T/C (second compound 10 µM, first compound 0.0316 µM): 92%
viability, T/C (second compound 10 µM, first compound 0.1 µM): 70%
viability, T/C (second compound 10 µM, first compound 0.316 µM): 37.8%
viability, T/C (second compound 10 µM, first compound 1 µM): 29.9%
viability, T/C (second compound 10 µM, first compound 3.16 µM): 25.3%
viability, T/C (second compound 10 µM, first compound 10 µM): 35.7%
